Results taken from patent US12527838B2, “Combination therapies comprising an agent that blocks the interaction between CD47 and SIRPα for treating gastric or gastroesphageal junction cancel” (ALX Oncology Inc., priority 2019, dated 2026).

Key:
[1] = cited from earlier work
RS4;11 leukemia cells = assay: RS4;11 xenograft model (acute leukemia); type: in vivo, NOD-SCID female mice
Procedure: The RS4;11 cells (described in Stong et al. (1985) Blood. 65(1): 21-31) was injected into the right flank of NOD-SCID female mice at a concentration of 5×10^6 cells per mouse using a 1:1 matrigel (Corning) and RPMI 1640 ratio. Tumors were monitored until the average size of all tumors reached 190 mm^3. […] The formulation for Venetoclax was a ratio of DMSO:ethanol:Cremophor EL:dextrose 5% in water (D5W) was […], by volume. Venetoclax-treated mice were dosed with 250 μg of Venetoclax by oral gavage 2 times total, 3 days apart. Drug A-treated mice were dosed IP at 10 mg/kg, 4 times total, 3-4 days apart. […] Tumors were measured in two dimensions with calipers, and tumor volume was calculated as: length×width×width×0.5, where length was the larger of the two measurements.

HL60 cells = assay: In vitro phagocytosis of HL60 cells by human monocyte-derived macrophages; type: cell-based; settings: 20 nM Drug A, 125 nM venetoclax; FIG. 5A
Procedure: CD14^+ monocytes were purified by negative selection using the Classical Monocytes Isolation Kit, human (Miltenyi Biotec) and LS columns (Miltenyi Biotec) according to the manufacturer's protocol. CD14^+ monocytes were seeded into 150 mm tissue culture dishes (Corning) at 6 million cells per dish in 25 mL medium comprised of RPMI complete media, supplemented with 50 ng/mL M-CSF (Miltenyi Biotec), 10% human FBS serum (Thermo Fisher Scientific), 1% penicillin/streptomycin, and 1% GlutaMAX. Cells were cultured for seven to eleven days.
HL60 and OCI-AML3 cells were washed once in PBS and labeled with the Celltrace CFSE Cell Proliferation kit (Thermo Fisher Scientific) in suspension with 300 nM CFSE (carboxyfluorescein succinimidyl ester) according to the manufacturer's instructions and resuspended in RPMI complete media. […] Prior to incubation with macrophages, cells were resuspended in RPMI. Macrophages were detached from culture plates by washing once with PBS and incubation in TrypLE Select for 20 minutes at 37° C. Cells were removed with a cell scraper (Corning), washed in PBS, and resuspended in RPMI. […]
Briefly HL60 cells and OCI-AML3 cells (i.e., “target cells”) were labeled with CFSE (carboxyfluorescein succinimidyl ester) and treated with venetoclax for 48 hours. […] Macrophage cells were pelleted, stained, and analyzed via flow cytometry. […]

BCL-XL = BCL-XL (Homo sapiens, UniProt Q07817); settings: selectivity profile; cited from earlier work
BFL-1 (BCL2A1/A1) = biological target: T1, BFL-1 (BCL2A1/A1) (Homo sapiens, UniProt Q16548); settings: selectivity profile; cited from earlier work
T1 sequence (Q16548 1-175): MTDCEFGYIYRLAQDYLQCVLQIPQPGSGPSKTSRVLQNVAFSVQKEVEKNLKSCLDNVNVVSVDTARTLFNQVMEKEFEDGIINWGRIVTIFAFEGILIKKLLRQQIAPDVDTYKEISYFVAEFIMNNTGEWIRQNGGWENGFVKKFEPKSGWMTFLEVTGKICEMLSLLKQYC

[2] = system: BCL-XL-dependent cells, such as platelets; settings: cited from earlier work
MCL-1 = MCL-1 (Homo sapiens, UniProt Q07820); settings: selectivity profile; cited from earlier work
CT26 tumor cells = assay: CT26 syngeneic mouse colon carcinoma model; type: in vivo, BALB/c female mice
Procedure: The CT26 cells (see Wang et al. (1995) J. Immunol. 154:4685-4692) were injected into the right flank of BALB/c female mice at a concentration of 5×10^5 cells per mouse in RPMI 1640. Tumors were monitored until the average size of all tumors reached 65-70 mm^3. […] The two 30 mpk doses were given 10 days apart. […] Mice receiving both cisplatin and Drug were administered with cisplatin (IP) according to one of the regimens described above, and with Drug A as described above. In mice receiving combination treatment, Drug A was administered one day after cisplatin. Tumors were measured in two dimensions with calipers, and tumor volume was calculated as: length×width×width×0.5, where length was the larger of the two measurements.

Chain of BCL-XL (Q07817 whole entry, species assumed): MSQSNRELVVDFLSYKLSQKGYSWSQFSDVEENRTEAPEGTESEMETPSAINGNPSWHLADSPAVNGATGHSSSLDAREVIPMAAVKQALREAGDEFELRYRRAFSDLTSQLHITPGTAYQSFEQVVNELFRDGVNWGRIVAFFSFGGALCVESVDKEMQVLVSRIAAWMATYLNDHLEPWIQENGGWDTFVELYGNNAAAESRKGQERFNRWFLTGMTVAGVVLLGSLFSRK
Chain of MCL-1 (Q07820 whole entry, species assumed): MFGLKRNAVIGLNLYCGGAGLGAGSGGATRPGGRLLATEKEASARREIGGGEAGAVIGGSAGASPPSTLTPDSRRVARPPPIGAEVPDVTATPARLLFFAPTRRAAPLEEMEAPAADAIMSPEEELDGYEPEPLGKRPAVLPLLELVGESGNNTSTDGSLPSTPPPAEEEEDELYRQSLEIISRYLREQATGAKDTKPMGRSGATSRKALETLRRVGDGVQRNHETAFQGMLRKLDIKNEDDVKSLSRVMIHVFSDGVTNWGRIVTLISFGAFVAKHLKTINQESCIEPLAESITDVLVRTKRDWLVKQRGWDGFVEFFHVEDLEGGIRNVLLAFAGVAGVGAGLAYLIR

For `[NH2][Pt]1([NH2])[O]C(=O)C2(CCC2)C(=O)[O]1` [Carboplatin, platinum, diammine [1,1cyclobutane-dicarboxylato(2-)-0,0]-, (SP-4-2)], the aqueous solubility [1] is listed as “water-soluble”.

For `CC1(C)CCC(CN2CCN(c3ccc(C(=O)NS(=O)(=O)c4ccc(NCC5CCOCC5)c([N+](=O)[O-])c4)c(Oc4cnc5[nH]ccc5c4)c3)CC2)=C(c2ccc(Cl)cc2)C1` [venetoclax, 4-(4-{[2-(4-chlorophenyl)-4,4dimethylcyclohex-1-en-1-yl]methyl}piperazin-1-yl)-N-({3-nitro-4-[(tetrahydro-2H-pyran-4ylmethyl)amino]phenyl}sulfonyl)-2-(1H-pyrrolo[2,3-b]pyridin-5-yloxy)benzamide], the aqueous solubility [1] is given as “very low aqueous solubility”, the average tumor volume (RS4;11 leukemia cells; Day 65, re-treated mice (n=5/group)) is given as “about 1685 mm^3” and the “tumor-free (TF) mice” value (RS4;11 leukemia cells; day 41) is given as 1 out of 10. For the same molecule, the “tumor growth (tumor volume)” value (RS4;11 leukemia cells; venetoclax 250 μg oral gavage 2 times, Drug A 10 mg/kg IP 4 times, FIG. 1A) was “inhibited tumor growth” and the “macrophage-mediated phagocytosis of HL60 cells” value (HL60 cells) was “stimulated macrophage-mediated phagocytosis of HL60 cells”.

In the case of `O=C(c1cc(-c2cc3c(cc2C(=O)N2Cc4ccccc4C[C@H]2CN2CCOCC2)OCO3)n2c1CCCC2)N(c1ccccc1)c1ccc(O)cc1` [Drug S55746, (S)—N-(4-hydroxyphenyl)-3-(6-(3-(morpholinomethyl)-1,2,3,4-tetrahydroisoquinoline-2-carbonyl)benzo[d][1,3]dioxol-5-yl)-N-phenyl-5,6,7,8-tetrahydroindolizine-1-carboxamide], the “affinity for BCL-XL” value (BCL-XL) is given as “poor affinity”, the “binding to BFL-1 (BCL2A1/A1)” value (BFL-1 (BCL2A1/A1)) is given as “no significant binding” and the cytotoxic activity [2] is given as “no cytotoxic activity”. For the same molecule, the “binding to MCL-1” value (MCL-1) was “no significant binding”.

For `N.N.[Cl][Pt][Cl]` [cisplatin, dichloroplatinum diammoniate], the “mice with a tumor volume<500 mm^3” value (CT26 tumor cells; cisplatin two 5 mpk doses regimen) was 10% and the tumor growth (CT26 tumor cells; day 20, cisplatin two 5 mpk doses 10 days apart, Drug A two 30 mpk doses, FIG. 2A) was “inhibited somewhat”.
